Test results reported in patent US20260297085A1, “1 H-PYRROLO[2,3-B]PYRIDIN-4-YL]-2-OXOPYRROLIDINE-3-CARBONITRILE DERIVATIVES AS TYROSINE KINASE 2 (TYK2) INHIBITORS FOR THE TREATMENT OF INFLAMMATORY DISEASES” (BIOGEN MA INC., priority 2023, published 2026).
Structures can show the parent of a compound that is named as a salt.

Legend:
[1] = target: T1, human JAK2 kinase domain (JH1) (Homo sapiens, UniProt O60674); assay: JH1 biochemical assay for JAK2 (ADP-Glo kinase assay, recombinant JH1 catalytic domain, JAK3-974 peptide, 15 μM ATP)
T1 construct: recombinantly generated catalytic kinase (also known as JH1) domain of human JAK1, JAK2, JAK3 and TYK2
T1 sequence (O60674 849-1124 limits assumed): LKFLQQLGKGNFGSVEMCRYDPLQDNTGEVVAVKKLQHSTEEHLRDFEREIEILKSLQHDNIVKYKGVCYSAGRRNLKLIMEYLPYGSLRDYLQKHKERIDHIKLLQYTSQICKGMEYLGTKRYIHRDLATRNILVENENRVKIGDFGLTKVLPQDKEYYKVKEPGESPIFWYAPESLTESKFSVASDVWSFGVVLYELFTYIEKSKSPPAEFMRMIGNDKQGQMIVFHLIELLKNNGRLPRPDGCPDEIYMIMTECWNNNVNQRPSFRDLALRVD
Method in brief: (§1)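 Kinase 4 nM JAK1 / 0.2 nM JAK2 / 0.3 nM JAK3 / 2 nM TYK2; 50 μM peptide; 100 min. Unused ATP depleted, ADP→ATP, luciferase luminescence. 11-pt 3-fold series from 10 or 1 μM; normalized, 4PL fit → IC50.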

[2] = target: JAK1 kinase activity on STAT3 in TF1 cells (Homo sapiens, UniProt P23458); assay: pSTAT3 cell assay (MSD; TF1 cells, 30 ng/mL IL-6 stimulation); format: cell-based; details: 30 ng/mL IL-6, 15 minutes
Chain of JAK1 kinase activity on STAT3 in TF1 cells (P23458 whole entry): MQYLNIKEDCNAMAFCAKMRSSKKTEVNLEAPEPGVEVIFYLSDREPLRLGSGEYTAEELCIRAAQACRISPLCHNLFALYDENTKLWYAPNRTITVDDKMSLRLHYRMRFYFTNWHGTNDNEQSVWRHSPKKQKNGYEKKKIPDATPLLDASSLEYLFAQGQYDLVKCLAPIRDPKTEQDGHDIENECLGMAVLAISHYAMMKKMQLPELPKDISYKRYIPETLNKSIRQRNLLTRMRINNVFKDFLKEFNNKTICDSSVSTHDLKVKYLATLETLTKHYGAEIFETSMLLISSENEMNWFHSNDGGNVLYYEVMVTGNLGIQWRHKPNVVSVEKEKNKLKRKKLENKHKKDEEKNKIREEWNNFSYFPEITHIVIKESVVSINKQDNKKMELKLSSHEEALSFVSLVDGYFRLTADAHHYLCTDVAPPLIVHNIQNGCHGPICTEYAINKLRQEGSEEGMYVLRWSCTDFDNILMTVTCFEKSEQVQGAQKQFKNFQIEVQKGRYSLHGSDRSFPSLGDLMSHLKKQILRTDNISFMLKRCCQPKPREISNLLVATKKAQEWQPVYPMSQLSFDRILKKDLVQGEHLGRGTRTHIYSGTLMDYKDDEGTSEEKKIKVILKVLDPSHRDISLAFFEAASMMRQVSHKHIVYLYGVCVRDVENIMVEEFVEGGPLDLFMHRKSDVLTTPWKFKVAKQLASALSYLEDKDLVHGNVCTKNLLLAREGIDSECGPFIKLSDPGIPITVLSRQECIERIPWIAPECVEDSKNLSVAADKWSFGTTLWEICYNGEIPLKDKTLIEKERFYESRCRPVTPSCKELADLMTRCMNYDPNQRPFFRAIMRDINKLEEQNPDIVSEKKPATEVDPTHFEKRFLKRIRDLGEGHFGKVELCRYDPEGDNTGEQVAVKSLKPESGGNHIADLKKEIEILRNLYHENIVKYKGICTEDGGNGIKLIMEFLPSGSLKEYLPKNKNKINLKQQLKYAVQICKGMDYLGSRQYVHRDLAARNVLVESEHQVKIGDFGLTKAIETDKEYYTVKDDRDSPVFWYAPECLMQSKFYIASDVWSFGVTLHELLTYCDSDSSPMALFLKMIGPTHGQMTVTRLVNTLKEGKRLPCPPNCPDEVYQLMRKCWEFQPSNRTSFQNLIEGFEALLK
Method in brief: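 Readout is pSTAT3 in lysates, quantified on an MSD plate assay using anti-STAT3 antibodies. Before lysis, TF1 cells had been serum-starved, exposed to compound for 1 hour across ten four-fold dilutions starting at 10 μM, and given IL-6 for 15 minutes.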

[3] = target: JAK2 kinase activity on STAT5 in TF1 cells (Homo sapiens, UniProt O60674); assay: pSTAT5 cell assay (MSD; TF1 cells, 30 ng/mL IL-3 stimulation); format: cell-based; details: 30 ng/mL IL-3, 15 minutes
Chain of JAK2 kinase activity on STAT5 in TF1 cells (O60674 whole entry): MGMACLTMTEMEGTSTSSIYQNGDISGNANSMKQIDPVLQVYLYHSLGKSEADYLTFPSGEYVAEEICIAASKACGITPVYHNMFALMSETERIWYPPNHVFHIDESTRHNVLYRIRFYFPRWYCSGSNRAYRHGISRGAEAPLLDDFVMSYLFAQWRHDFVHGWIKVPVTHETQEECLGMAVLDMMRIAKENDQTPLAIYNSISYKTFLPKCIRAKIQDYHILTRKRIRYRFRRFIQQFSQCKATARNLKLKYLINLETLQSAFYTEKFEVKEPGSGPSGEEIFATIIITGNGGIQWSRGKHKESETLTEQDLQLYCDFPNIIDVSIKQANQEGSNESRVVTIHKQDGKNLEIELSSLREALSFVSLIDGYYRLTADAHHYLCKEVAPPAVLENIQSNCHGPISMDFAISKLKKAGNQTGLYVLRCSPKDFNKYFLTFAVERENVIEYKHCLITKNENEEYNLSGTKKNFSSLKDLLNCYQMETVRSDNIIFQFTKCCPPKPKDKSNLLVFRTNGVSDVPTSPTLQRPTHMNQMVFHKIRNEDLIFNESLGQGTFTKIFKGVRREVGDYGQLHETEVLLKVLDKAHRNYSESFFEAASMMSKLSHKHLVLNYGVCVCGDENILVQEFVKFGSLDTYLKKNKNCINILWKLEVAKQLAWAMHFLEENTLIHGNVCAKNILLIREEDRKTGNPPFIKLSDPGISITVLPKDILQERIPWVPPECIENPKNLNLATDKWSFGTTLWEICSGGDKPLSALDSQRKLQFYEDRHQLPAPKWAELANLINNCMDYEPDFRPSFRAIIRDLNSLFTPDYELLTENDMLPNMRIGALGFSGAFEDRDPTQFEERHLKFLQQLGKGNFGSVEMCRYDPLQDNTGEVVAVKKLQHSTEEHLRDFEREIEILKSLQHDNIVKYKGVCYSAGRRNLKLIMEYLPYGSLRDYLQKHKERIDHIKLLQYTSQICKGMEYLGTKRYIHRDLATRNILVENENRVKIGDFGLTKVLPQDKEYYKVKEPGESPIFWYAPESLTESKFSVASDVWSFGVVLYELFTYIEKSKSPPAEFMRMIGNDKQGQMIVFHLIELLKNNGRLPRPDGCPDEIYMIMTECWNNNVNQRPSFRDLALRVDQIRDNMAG
Method in brief: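 Serum-starved TF1 cells with native JAK2/STAT5 were pretreated 1 h with compound (10-point four-fold dilutions from 10 μM), then stimulated 15 min with 30 ng/mL IL-3. pSTAT5 in lysates quantified by MSD immunoassay; normalized percent activity fitted to a 4-parameter logistic curve for IC50.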

[4] = target: T2, human JAK1 kinase domain (JH1) (Homo sapiens, UniProt P23458); assay: JH1 biochemical assay for JAK1 (ADP-Glo kinase assay, recombinant JH1 catalytic domain, JAK3-342 peptide, 35 μM ATP)
T2 construct: recombinantly generated catalytic kinase (also known as JH1) domain of human JAK1, JAK2, JAK3 and TYK2
T2 sequence (P23458 875-1153 limits assumed): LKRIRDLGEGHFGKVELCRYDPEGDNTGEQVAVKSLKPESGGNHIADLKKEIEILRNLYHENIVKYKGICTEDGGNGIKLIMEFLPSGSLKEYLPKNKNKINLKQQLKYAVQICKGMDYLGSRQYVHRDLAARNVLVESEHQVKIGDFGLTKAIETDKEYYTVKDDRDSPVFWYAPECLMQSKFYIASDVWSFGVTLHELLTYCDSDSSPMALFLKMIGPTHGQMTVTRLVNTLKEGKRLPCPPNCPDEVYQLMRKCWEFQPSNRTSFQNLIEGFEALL
Method in brief: as §1

[5] = target: T3, human TYK2 kinase domain (JH1) (Homo sapiens, UniProt P29597); assay: JH1 biochemical assay for TYK2 (ADP-Glo kinase assay, recombinant JH1 catalytic domain, JAK3-974 peptide, 10 μM ATP)
T3 construct: recombinantly generated catalytic kinase (also known as JH1) domain of human JAK1, JAK2, JAK3 and TYK2
T3 sequence (P29597 897-1176 limits assumed): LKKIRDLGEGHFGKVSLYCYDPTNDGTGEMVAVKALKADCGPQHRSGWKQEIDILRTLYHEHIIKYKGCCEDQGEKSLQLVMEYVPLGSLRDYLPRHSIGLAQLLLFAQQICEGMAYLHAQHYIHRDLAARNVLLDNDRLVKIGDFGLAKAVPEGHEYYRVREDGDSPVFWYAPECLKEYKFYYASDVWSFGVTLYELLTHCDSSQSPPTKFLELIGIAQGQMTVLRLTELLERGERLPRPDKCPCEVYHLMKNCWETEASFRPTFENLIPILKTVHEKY
Method in brief: as §1

[6] = target: Tyk2 kinase activity on STAT4 in NK92 cells (Homo sapiens, UniProt P29597); assay: pSTAT4 cell assay (MSD; NK92 cells, 30 ng/mL IL2 stimulation); format: cell-based; details: 30 ng/mL IL2, 15 minutes
Chain of Tyk2 kinase activity on STAT4 in NK92 cells (P29597 whole entry): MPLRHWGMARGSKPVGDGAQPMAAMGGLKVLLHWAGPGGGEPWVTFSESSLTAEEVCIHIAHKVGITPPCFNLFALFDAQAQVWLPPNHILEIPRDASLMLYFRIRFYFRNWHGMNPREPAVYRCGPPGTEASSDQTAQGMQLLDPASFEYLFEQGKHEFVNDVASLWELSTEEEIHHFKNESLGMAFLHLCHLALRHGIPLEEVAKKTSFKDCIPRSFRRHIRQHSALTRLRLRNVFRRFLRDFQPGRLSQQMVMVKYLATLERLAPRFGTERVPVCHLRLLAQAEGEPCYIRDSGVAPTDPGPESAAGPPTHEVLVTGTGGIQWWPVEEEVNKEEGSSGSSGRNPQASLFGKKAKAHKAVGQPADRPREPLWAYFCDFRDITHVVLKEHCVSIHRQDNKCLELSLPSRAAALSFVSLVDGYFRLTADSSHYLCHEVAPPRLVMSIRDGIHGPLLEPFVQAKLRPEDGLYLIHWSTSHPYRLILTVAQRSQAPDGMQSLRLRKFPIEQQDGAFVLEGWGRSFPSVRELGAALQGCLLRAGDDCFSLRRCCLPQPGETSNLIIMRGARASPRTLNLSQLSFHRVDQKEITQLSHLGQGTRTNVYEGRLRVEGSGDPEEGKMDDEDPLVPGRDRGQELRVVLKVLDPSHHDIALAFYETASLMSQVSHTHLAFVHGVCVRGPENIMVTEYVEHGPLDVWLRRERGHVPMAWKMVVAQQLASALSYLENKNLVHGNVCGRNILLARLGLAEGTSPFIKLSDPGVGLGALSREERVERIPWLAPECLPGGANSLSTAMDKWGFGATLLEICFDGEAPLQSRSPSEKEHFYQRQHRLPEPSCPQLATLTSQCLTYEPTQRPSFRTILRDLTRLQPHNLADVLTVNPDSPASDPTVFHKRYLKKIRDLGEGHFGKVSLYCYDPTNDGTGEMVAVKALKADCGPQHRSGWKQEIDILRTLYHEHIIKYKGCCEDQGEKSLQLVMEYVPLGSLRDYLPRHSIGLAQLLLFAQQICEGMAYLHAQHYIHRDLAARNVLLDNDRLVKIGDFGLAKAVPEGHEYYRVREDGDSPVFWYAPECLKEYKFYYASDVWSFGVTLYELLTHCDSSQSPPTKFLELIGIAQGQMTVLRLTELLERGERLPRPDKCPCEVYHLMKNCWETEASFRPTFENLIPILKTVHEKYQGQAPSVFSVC
Method in brief: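 IC50 values derive from 4-parameter logistic fits of normalized percent activity against log compound concentration. Phospho-STAT was measured by MSD with anti-STAT4 antibodies after 15 min of 30 ng/mL IL2 in serum-starved NK92 cells pretreated 1 hr with compound.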

[7] = target: T4, human JAK3 kinase domain (JH1) (Homo sapiens, UniProt P52333); assay: JH1 biochemical assay for JAK3 (ADP-Glo kinase assay, recombinant JH1 catalytic domain, JAK3-974 peptide, 4 μM ATP)
T4 construct: recombinantly generated catalytic kinase (also known as JH1) domain of human JAK1, JAK2, JAK3 and TYK2
T4 sequence (P52333 822-1111 limits assumed): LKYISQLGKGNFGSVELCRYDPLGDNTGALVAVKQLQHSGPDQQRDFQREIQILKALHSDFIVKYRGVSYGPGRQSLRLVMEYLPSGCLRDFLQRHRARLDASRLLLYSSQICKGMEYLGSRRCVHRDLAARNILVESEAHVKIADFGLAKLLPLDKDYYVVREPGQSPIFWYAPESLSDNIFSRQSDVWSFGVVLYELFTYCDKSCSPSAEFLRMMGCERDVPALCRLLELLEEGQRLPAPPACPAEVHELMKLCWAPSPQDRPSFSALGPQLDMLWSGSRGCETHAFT
Method in brief: as §1

Row | IC50 ([1]; JAK2 JH1, ADP-Glo) | IC50 [2] | IC50 [3] | IC50 ([4]; JAK1 JH1, ADP-Glo) | IC50 ([5]; TYK2 JH1, ADP-Glo) | IC50 [6] | IC50 ([7]; JAK3 JH1, ADP-Glo) | IC50 ([1]; JH1 kinase domain, ADP-Glo) | IC50 ([4]; JH1 kinase domain, ADP-Glo) | IC50 ([5]; JH1 kinase domain, ADP-Glo) | IC50 ([7]; JH1 kinase domain, ADP-Glo) | Structure (SMILES)
1 | 100 to 1000 nM | 1000 to 5000 nM | > 10000 nM | 100 to 1000 nM | 5 to 20 nM | 50 to 100 nM | 100 to 1000 nM |  |  |  |  | C[C@@H]1CN(c2ccnc3cc(-c4cnn(C)c4)oc23)C(=O)[C@]1(C#N)C1CC1 [Example 268, (3R,4S)-3-cyclopropyl-4-methyl-1-(2-(1-methyl-1H-pyrazol-4-yl)furo[3,2-b]pyridin-7-yl)-2-oxopyrrolidine-3-carbonitrile]
2 | 100 to 1000 nM | 1000 to 5000 nM | 5000 to 10000 nM | 100 to 1000 nM | 5 to 20 nM | > 100 nM | 100 to 1000 nM |  |  |  |  | Cc1cn(-c2cc3c(N4C[C@@H](C)[C@@](C#N)(C5CC5)C4=O)ccnn3c2)cn1 [Example 341, (3R,4S)-3-cyclopropyl-4-methyl-1-(6-(4-methyl-1H-imidazol-1-yl)pyrrolo[1,2-b]pyridazin-4-yl)-2-oxopyrrolidine-3-carbonitrile]
3 |  | > 10000 nM | > 10000 nM |  |  | > 100 nM |  | 100 to 1000 nM | 1000 to 5000 nM | 50 to 100 nM | 100 to 1000 nM | COC[C@@]1(C#N)CCN(c2ccnn3cc(-c4cnn(C)c4)cc23)C1=O (single isomer, unassigned) [Example 40]
4 | 100 to 1000 nM | 1000 to 5000 nM | 1000 to 5000 nM | 100 to 1000 nM | < 5 nM | 50 to 100 nM | < 100 nM |  |  |  |  | C[C@@H]1CN(c2ccnn3cc(-c4cnn(C5CC6(C5)CN(C)C6)c4)cc23)C(=O)[C@]1(C#N)C1CC1 [Example 315, (3R,4S)-3-cyclopropyl-4-methyl-1-(6-(1-(2-methyl-2-azaspiro[3.3]heptan-6-yl)-1H-pyrazol-4-yl)pyrrolo[1,2-b]pyridazin-4-yl)-2-oxopyrrolidine-3-carbonitrile]
5 |  | > 10000 nM | > 10000 nM |  |  | > 100 nM |  | 1000 to 5000 nM | 1000 to 5000 nM | 50 to 100 nM | 100 to 1000 nM | Cc1cnn2cc(-c3cnn(C)c3)nc(N3C[C@@H](C)[C@@](C#N)(C4CC4)C3=O)c12 [Example 186, (3R,4S)-3-cyclopropyl-4-methyl-1-(3-methyl-6-(1-methyl-1H-pyrazol-4-yl)pyrazolo[1,5-a]pyrazin-4-yl)-2-oxopyrrolidine-3-carbonitrile]
6 |  | 1000 to 5000 nM | > 10000 nM |  |  | 50 to 100 nM |  | 100 to 1000 nM | < 100 nM | 5 to 20 nM | 100 to 1000 nM | C[C@@H]1CN(c2ccnn3cc(-c4ccc5cncn5c4)cc23)C(=O)[C@]1(C#N)C1CC1 [Example 51, (3R,4S)-3-cyclopropyl-1-(6-(imidazo[1,5-a]pyridin-6-yl)pyrrolo[1,2-b]pyridazin-4-yl)-4-methyl-2-oxopyrrolidine-3-carbonitrile]
7 |  | 1000 to 5000 nM | 5000 to 10000 nM |  |  | > 100 nM |  | 100 to 1000 nM | 100 to 1000 nM | < 5 nM | 100 to 1000 nM | CCOCCn1cc(-c2cc3c(N4C[C@@H](C)[C@@](C#N)(C5CC5)C4=O)ccnn3c2)cn1 [Example 172, (3R,4S)-3-cyclopropyl-1-(6-(1-(2-ethoxyethyl)-1H-pyrazol-4-yl)pyrrolo[1,2-b]pyridazin-4-yl)-4-methyl-2-oxopyrrolidine-3-carbonitrile]
8 |  | 100 to 1000 nM | 1000 to 5000 nM |  |  | 20 to 50 nM |  | 100 to 1000 nM | < 100 nM | < 5 nM | 100 to 1000 nM | C[C@@H]1CN(c2ccnn3cc(-c4ccc5nccn5c4)cc23)C(=O)[C@]1(C#N)C1CC1 [Example 88, (3R,4S)-3-cyclopropyl-1-(6-(imidazo[1,2-a]pyridin-6-yl)pyrrolo[1,2-b]pyridazin-4-yl)-4-methyl-2-oxopyrrolidine-3-carbonitrile]
9 | < 100 nM | 100 to 1000 nM | 100 to 1000 nM | < 100 nM | < 5 nM | 50 to 100 nM | < 100 nM |  |  |  |  | C[C@@H]1CN(c2nc(-c3cnn(C4CCCCC4)c3)cn3ncc(F)c23)C(=O)[C@]1(C#N)C1CC1 [Example 219, (3R,4S)-1-(6-(1-cyclohexyl-1H-pyrazol-4-yl)-3-fluoropyrazolo[1,5-a]pyrazin-4-yl)-3-cyclopropyl-4-methyl-2-oxopyrrolidine-3-carbonitrile]
10 | < 100 nM | 1000 to 5000 nM | 1000 to 5000 nM | 100 to 1000 nM | < 5 nM | 50 to 100 nM | < 100 nM |  |  |  |  | C[C@@H]1CN(c2ccnn3cc(-c4cnn(C56CC(C#N)(C5)C6)c4)cc23)C(=O)[C@]1(C#N)C1CC1 [Example 320, (3R,4S)-1-(6-(1-(3-cyanobicyclo[1.1.1]pentan-1-yl)-1H-pyrazol-4-yl)pyrrolo[1,2-b]pyridazin-4-yl)-3-cyclopropyl-4-methyl-2-oxopyrrolidine-3-carbonitrile]
11 | < 100 nM | < 100 nM | 100 to 1000 nM | < 100 nM | < 5 nM | 5 to 20 nM | < 100 nM |  |  |  |  | C[C@@H]1CN(c2nc(-c3ccc4cnn(C)c4c3)cn3nccc23)C(=O)[C@]1(C#N)C1CC1 [Example 259, (3R,4S)-3-cyclopropyl-4-methyl-1-(6-(1-methyl-1H-indazol-6-yl)pyrazolo[1,5-a]pyrazin-4-yl)-2-oxopyrrolidine-3-carbonitrile trifluoroacetate]
12 |  | 100 to 1000 nM | 1000 to 5000 nM |  |  | 20 to 50 nM |  | < 100 nM | < 100 nM | < 5 nM | < 100 nM | CC(C)n1cc(-c2cc3c(N4C[C@@H](C)[C@@](C#N)(C5CC5)C4=O)ccnn3c2)cn1 [Example 167, (3R,4S)-3-cyclopropyl-1-(6-(1-isopropyl-1H-pyrazol-4-yl)pyrrolo[1,2-b]pyridazin-4-yl)-4-methyl-2-oxopyrrolidine-3-carbonitrile]
13 | 100 to 1000 nM | 1000 to 5000 nM | 5000 to 10000 nM | 100 to 1000 nM | 5 to 20 nM | > 100 nM | 100 to 1000 nM |  |  |  |  | Cc1cncc(-c2cn3nccc3c(N3C[C@@H](C)[C@@](C#N)(C4CC4)C3=O)n2)c1 [Example 236, (3R,4S)-3-cyclopropyl-4-methyl-1-(6-(5-methylpyridin-3-yl)pyrazolo[1,5-a]pyrazin-4-yl)-2-oxopyrrolidine-3-carbonitrile]
14 |  | 1000 to 5000 nM | 5000 to 10000 nM |  |  | 50 to 100 nM |  | 100 to 1000 nM | 100 to 1000 nM | 5 to 20 nM | 100 to 1000 nM | CCc1ccc(-c2cc3c(N4C[C@@H](C)[C@@](C#N)(C5CC5)C4=O)ccnn3c2)cn1 [Example 174, (3R,4S)-3-cyclopropyl-1-(6-(6-ethylpyridin-3-yl)pyrrolo[1,2-b]pyridazin-4-yl)-4-methyl-2-oxopyrrolidine-3-carbonitrile trifluoroacetate]
15 |  | 5000 to 10000 nM | > 10000 nM |  |  | > 100 nM |  | 100 to 1000 nM | 100 to 1000 nM | 5 to 20 nM | 100 to 1000 nM | C[C@@H]1CN(c2ccnn3cc(-c4ccnc(C#N)c4)cc23)C(=O)[C@]1(C#N)C1CC1 [Example 93, 4-(4-((3R,4S)-3-cyano-3-cyclopropyl-4-methyl-2-oxopyrrolidin-1-yl)pyrrolo[1,2-b]pyridazin-6-yl)picolinonitrile]
16 |  | 1000 to 5000 nM | 5000 to 10000 nM |  |  | 20 to 50 nM |  | 100 to 1000 nM | 100 to 1000 nM | < 5 nM | 100 to 1000 nM | C[C@@H]1CN(c2ccnn3cc(-c4cnn(C(F)F)c4)cc23)C(=O)[C@]1(C#N)C1CC1 [Example 35, (3R,4S)-3-cyclopropyl-1-(6-(1-(difluoromethyl)-1H-pyrazol-4-yl)pyrrolo[1,2-b]pyridazin-4-yl)-4-methyl-2-oxopyrrolidine-3-carbonitrile]
